The target in one assay is T1, human neuronal α7 nAChR (Homo sapiens, UniProt P36544).
T1 construct: expressed in transfected cells; host or cells: Xenopus laevis oocytes
As to the kind of experiment: Automated TEVC recording of ACh-evoked currents in Xenopus oocytes expressing human α7 nAChR. Type of assay: cell-based. To be noted: for Hill Slope: concentration-inhibition curve, ACh 100 µM; for Hill Slope / IC50: 95% confidence interval in parentheses; for IC50: inhibition of ACh-evoked current, ACh 100 µM (EC50), −60 mV. The text has this: Functional analysis of the (±)-4 racemate and (+)-4 R and (−)-4 S enantiomers used either manual or automated two-electrode voltage-clamp (TEVC) recordings on Xenopus laevis oocytes at −60 mV holding membrane potential. The oocytes were either micro-transplanted with Torpedo α1_2βγδ-enriched electrocyte membranes or transfected with human α7 or α4β2-encoding cDNAs. When applied alone (see Experimental Procedures), none of the three spiroimines induced nAChR channel opening, thereby discarding any agonistic activity toward these nAChR subtypes. Instead, when applied together with ACh at its EC50 concentration for each nAChR subtype, all three spiroimines clearly behaved as nicotinic antagonists, whose potency depended on the receptor subtype examined (Figure 2; Table 1).
The sources for live animals and biological materials, the procedures for nAChR microtransplantation and expression in oocytes, and the procedures for manual (α1_2βγδ nAChR) and automated (α7 and α4β2 nAChRs) TEVC recording are detailed in Appendix C. […] Then, the oocyte was perfused for 45 s with the tested spiroimine at a given concentration, immediately followed by the co-application of ACh and the spiroimine at the same concentrations and times as indicated above. The oocyte was washed with Ringer’s solution, and then recovery of the ACh-evoked current was recorded.
The concentration–inhibition curves were analyzed as previously detailed using the equation I = Imax [L]^nH/(EC50^nH + [L]^nH) (Equation (1)), where I is the measured agonist-evoked current, [L] is the agonist concentration, EC50 is the agonist concentration that evoked half the maximal current (I^max), and nH is the Hill coefficient. For antagonist inhibition, current (I) values were normalized to the I^max value recorded from the same oocyte to yield the fractional (%) response data. IC50 values were established from the concentration–response curves by fitting to the equation F = 1/[1 + ([X]/IC50)^nH] (Equation (2)), where F is the fractional response obtained in the presence of the inhibitor at concentration [X], and IC50 is the inhibitor concentration reducing the ACh-evoked amplitude by half. Data analysis was performed without constraints as Log[spiroimine] versus response (three parameters), with a Hill slope ~1. Statistical significance of differences between the control and test values was assessed using either the two-tailed Student’s “t” test or the Kolmogorov–Smirnov two-sample test and p < 0.05.
Torpedo membranes containing α1_2βγδ nAChR were microtransplanted into the oocyte cytoplasm by microinjecting a membrane suspension (50 nL at 2.5 µg/µL, i.e., 125 ng total protein, in 5 mM glycine) with an electronic micro-injector (Nanoliter2000 Micro4 Controller, World Precision Instruments Inc., Hertfordshire, UK) mounted on a microscope. Human α7 and α4β2 nAChRs were expressed through microinjection, into the oocyte nucleus, of α7 mRNA and of a 1:1 (w/w) mixture of α4 and β2 cDNAs (a ratio favoring expression of the α4_3β2_2 population over the α4_2β2_3 population) (50 nL at 1 µg/µL) in a pRc/CMV expression vector (Invitrogen). Oocytes were maintained at 18 °C and TEVC recordings were performed 1–4 days later in a room with controlled temperature (20 °C).
Automated TEVC on α7 and α4β2 nAChR oocytes was performed using a HiClamp system (Multi Channel Systems, GmbH., Reutlingen, Germany). Oocytes free of follicular cells were transferred from the 96-wells of the oocyte microplate to a recording basket carrying the reference bath electrode. Oocytes were automatically impaled and clamped at a holding potential of −60 mV using borosilicate glass microelectrodes of 0.5–5 MΩ tip resistances, filled with a 1:1 (v/v) mixture of KCl 1 M and KAc 1 M. The clamped oocytes were exposed twice or thrice to ACh by incubation into a well containing ACh (at the EC50 for the assayed nAChR subtype) to obtain a control IACh peak amplitude. […]

The target in another assay is T2, L-AChBP (Lymnaea stagnalis, UniProt P58154).
T2 construct: made in house; host or cells: stably transfected HEK293S-GnTI- cells
T2 sequence (P58154 20-229): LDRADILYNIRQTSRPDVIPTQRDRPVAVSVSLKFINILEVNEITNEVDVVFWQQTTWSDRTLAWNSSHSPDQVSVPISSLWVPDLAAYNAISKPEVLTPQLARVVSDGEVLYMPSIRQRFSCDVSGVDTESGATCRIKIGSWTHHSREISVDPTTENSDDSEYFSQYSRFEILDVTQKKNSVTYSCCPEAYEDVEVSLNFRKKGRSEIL
As to the kind of experiment: Scintillation proximity assay, competition against [3H]epibatidine binding to L-AChBP. Here is the method:
(§1) Equilibrium dissociation constants were determined either from ratios (Kd/(koff/kon)) of rate constants determined using multiple kinetic means (kon, koff, koff/GAL) or directly from stopped-flow measurements (Kd/SFeq, Kd/SPAeq) (see Experimental Procedures).
(§2) The procedures for stable expression and purification of A- and L-AChBPs are described in Appendix D. Rate constants for association (kon) and dissociation (koff) were determined by multiple kinetic means, largely as previously described. Measurement of kon and koff values entailed the direct admixture of reactants and monitoring the quenching of AChBP native Trp fluorescence. Individual rate constants were determined from linear regression of the experimental mono-exponential decay of Trp fluorescence intensity (kobs) using the linear “approach-to-equilibrium” relationship kobs = kon[spiroimine] + koff (Equation (3)). Additional measurements of koff (koff/GAL) employed stopped-flow measurement of the rate of occupation of free AChBP binding sites by a competing ligand (gallamine, used in large excess relative to its Kd) to form a non-quenching gallamine-AChBP complex. Equilibrium dissociation constants were determined either from the ratios of rate constants (Kd/(koff/kon)), or from stopped-flow measurements of the rates of gallamine or epibatidine binding to pre-equilibrated spiroimine-AChBP complexes formed using increasing spiroimine concentrations (Kd/SFeq), or by the scintillation proximity assay (SPA) where spiroimine competition against the binding of [^3H]epibatidine (to L-AChBP) or [^3H]methyllycaconitine (to A-AChBP) was monitored at equilibrium (Kd/SPAeq). […] The time course of [^3H]ligand binding was monitored over several hours.
A- and L-AChBP, flanked with an N-terminal FLAG epitope with residues numbered (-8)[…](0), were expressed as soluble, exported proteins using synthetic cDNA and stably-transfected HEK293S-GnTI^− cells selected for G418 resistance, and cultured in Dulbecco’s modified Eagle’s medium (MediaTech CellGro, Albany, NY, USA) containing fetal bovine serum (FBS) 2% (v/v). […]
(In general: Scintillation proximity formats need no separation of bound from free tracer.)

In the next assay the target is A-AChBP (Aplysia californica, UniProt Q8WSF8). Briefly: Stopped-flow Trp fluorescence kinetic and equilibrium binding to purified A-AChBP. The conditions noted are these: for kon / koff / Kd: A-AChBP. Here is the method:
as §1, §2
A- and L-AChBP, flanked with an N-terminal FLAG epitope with residues numbered (-8)[…](0), were expressed as soluble, exported proteins using synthetic cDNA and stably-transfected HEK293S-GnTI^− cells selected for G418 resistance, and cultured in Dulbecco’s modified Eagle’s medium (MediaTech CellGro, Albany, NY, USA) containing fetal bovine serum (FBS) 2% (v/v). The conditioned medium was collected every 1–3 days for up to 4 weeks, supplemented with NaN3 0.02% (w/v) and stored at 4 °C. AChBPs were purified on immobilized anti-FLAG M2 antibody (Sigma-Aldrich) with elution using FLAG peptide 100 μg/mL in TRIS-HCl 50 mM pH 7.4, NaCl 150 mM, NaN3 0.02% (w/v). Purified proteins were dialyzed against the same buffer, concentrated by ultrafiltration, filtered on a 0.22 µm membrane, and stored on ice at 4 °C.

[1] abbreviates: quenching of native Trp fluorescence.
Setting [2] is: quenching of native Trp fluorescence, read-out: koff (converted).
Setting [3] is: stopped-flow with competing gallamine in large excess, read-out: koff/GAL (converted).
The mark [4] stands for this setting: Kd/(koff/kon), calculated from the rate constants.
Setting [5] is: Kd/SFeq, stopped-flow on pre-equilibrated complexes, single experiment in triplicate.

Results on three molecules are retold here after publication PMC11050823, “The Cyclic Imine Core Common to the Marine Macrocyclic Toxins Is Sufficient to Dictate Nicotinic Acetylcholine Receptor Antagonism” (Marine Drugs, 2024).

Molecules are shown by their SMILES. Like-named read-outs stand apart in the source and are kept apart here. Marks after values point to notes of the source that are not given here.

T1 sequence (P36544 23-502): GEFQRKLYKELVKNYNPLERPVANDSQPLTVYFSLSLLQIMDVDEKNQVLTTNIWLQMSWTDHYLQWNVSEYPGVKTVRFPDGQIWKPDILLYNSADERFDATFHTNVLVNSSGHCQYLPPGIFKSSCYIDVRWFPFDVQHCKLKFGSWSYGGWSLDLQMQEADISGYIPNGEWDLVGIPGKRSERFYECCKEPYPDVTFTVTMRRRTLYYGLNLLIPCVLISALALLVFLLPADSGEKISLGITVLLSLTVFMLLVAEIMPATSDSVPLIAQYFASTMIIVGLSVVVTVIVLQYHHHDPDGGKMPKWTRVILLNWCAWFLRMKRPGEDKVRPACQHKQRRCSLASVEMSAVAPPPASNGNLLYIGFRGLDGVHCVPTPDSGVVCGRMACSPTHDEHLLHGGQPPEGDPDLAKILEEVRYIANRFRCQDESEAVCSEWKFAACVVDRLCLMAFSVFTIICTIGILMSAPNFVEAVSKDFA
A-AChBP, sequence (Q8WSF8 entry or part of it): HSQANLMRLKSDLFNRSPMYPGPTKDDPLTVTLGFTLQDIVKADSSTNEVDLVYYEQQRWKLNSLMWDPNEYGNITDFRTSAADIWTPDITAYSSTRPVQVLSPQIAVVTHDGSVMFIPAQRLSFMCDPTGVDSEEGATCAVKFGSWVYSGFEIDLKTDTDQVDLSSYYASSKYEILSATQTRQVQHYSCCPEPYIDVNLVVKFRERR

By IC50 is commonly meant the concentration needed to halve the response being measured. In general, Kd refers to the equilibrium constant for the complex coming apart. A word on the kon: it is a measure of how fast the partners come together. Take `CC1=NCCCC12CCCCC21OCCO1` (racemic) [Racemic (±)-4, 7-methyl-1,4-dioxa-8-azadispiro[4.0.5.4]pentadec-7-ene]: on human neuronal α7 nAChR, the “Hill Slope” value is 0.61 (0.47–0.75) ^b. In addition, the IC50 on human neuronal α7 nAChR was 2.11 µM. Moreover, the Kd is 2.6 ± 1.9 µM on L-AChBP, 2.9 µM on A-AChBP (setting [4]) and 4.2 µM on A-AChBP (setting [5]). The molecule also gave an on-rate (kon) on A-AChBP (setting [1]) of 1.05e+08 M⁻¹ s⁻¹. Also, the values for the koff on A-AChBP (setting [2]) and on A-AChBP (setting [3]) were 300 s⁻¹ and 250 s⁻¹, respectively.
Regarding `CC1=NCCC[C@@]12CCCCC21OCCO1` [Spiroimine (−)-4 S, 7-methyl-1,4-dioxa-8-azadispiro[4.0.5.4]pentadec-7-ene], at human neuronal α7 nAChR (10 µM spiroimine, wash with Ringer's solution), the “recovery of the ACh-evoked current after washout of bound spiroimine” value is “fast and complete”. Moreover, the “Hill Slope” value at human neuronal α7 nAChR is on record as 0.58 (0.44–0.72) ^b. The half-maximal inhibitory concentration (IC50) on human neuronal α7 nAChR came out at 1.45 µM. The Kd was 3.4 µM at L-AChBP, 4.3 µM at A-AChBP (setting [4]) and 5.4 µM on A-AChBP (setting [5]). In addition, the kon on A-AChBP (setting [1]) was 1.02e+08 M⁻¹ s⁻¹. Moreover, the koff at A-AChBP (setting [2]) is 433 s⁻¹; on A-AChBP (setting [3]) it was 400 s⁻¹.
Turning to `CC1=NCCC[C@]12CCCCC21OCCO1` [Spiroimine (+)-4 R, 7-methyl-1,4-dioxa-8-azadispiro[4.0.5.4]pentadec-7-ene], the “Hill Slope” value on human neuronal α7 nAChR was 0.78 (0.54–1.01) ^b. Moreover, at human neuronal α7 nAChR, the IC50 came out at 4.88 µM. Also, the “higher affinity compared with the (−)-4 S enantiomer” value on human neuronal α7 nAChR (α7 nAChR, from Table 1) is on record as “ca. 5 fold”. Further, the values for the Kd at L-AChBP, on A-AChBP (setting [4]) and on A-AChBP (setting [5]) were 12 ± 3 µM, 2.2 µM and 3.1 µM, respectively. For the same molecule, the “higher affinity compared to enantiomer (−)-4 S” value at A-AChBP (A-AChBP (text: the two AChBPs)) was “ca. 2 fold”. The kon on A-AChBP (setting [1]) is 1.23e+08 M⁻¹ s⁻¹. Further, the figures for the koff on A-AChBP (setting [2]) and on A-AChBP (setting [3]) were 267 s⁻¹ and 233 s⁻¹, respectively.
